In patent publication US20070123508A1, “PAR2-modulating compounds and their use” (priority 2005, published 2007):

Biological target: T1, human PAR2 (Homo sapiens, UniProt P55085)
T1 construct: expressed in transfected cells; host or cells: NIH3T3 cells, transiently transfected; receptor in pSI-derived mammalian expression vector
T1 sequence (P55085 26-397): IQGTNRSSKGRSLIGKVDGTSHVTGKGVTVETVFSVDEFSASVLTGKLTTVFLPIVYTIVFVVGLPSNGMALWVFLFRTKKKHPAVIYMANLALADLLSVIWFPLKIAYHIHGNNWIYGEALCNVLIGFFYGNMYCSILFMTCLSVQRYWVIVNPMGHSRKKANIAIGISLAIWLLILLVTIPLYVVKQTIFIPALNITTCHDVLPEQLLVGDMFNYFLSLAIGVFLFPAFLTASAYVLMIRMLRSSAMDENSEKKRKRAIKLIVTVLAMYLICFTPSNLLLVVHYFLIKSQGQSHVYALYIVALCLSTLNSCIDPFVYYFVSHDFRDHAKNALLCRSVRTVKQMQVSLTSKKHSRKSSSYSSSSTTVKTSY
Test: Receptor Selection and Amplification Technology (R-SAT) functional receptor assay
Format: cell-based
Settings: for EC50: NIH3T3 cells transfected with PAR2, negative log of EC50 (molar); for Emax: percent maximum activation relative to the ligand SLIGRL, read-out: % Efficacy
Protocol: The functional receptor assay, Receptor Selection and Amplification Technology (R-SAT), was used to investigate the pharmacological properties of known and novel PAR2 compounds. R-SAT is disclosed in U.S. Pat. Nos. 5,707,798, 5,912,132, and 5,955,281, all of which are hereby incorporated herein by reference in their entirety, including any drawings.
Briefly, NIH3T3 cells were grown in 96 well tissue culture plates to 70-80% confluence. Cells were transfected for 16-20 h with plasmid DNAs using Polyfect (Qiagen Inc.) using the manufacturer's protocols. R-SATs were generally performed with 4 ng/well of receptor and 20 ng/well of β-galactosidase plasmid DNA. All receptor constructs used were in the pSI-derived mammalian expression vector (Promega Inc). The PAR2 gene was amplified by PCR from genomic DNA using oligodeoxynucleotide primers based on the published sequence (GenBank Accession # Z49993 and Z49994). For large-scale transfections, cells were transfected for 16-20 h, then trypsinized and frozen in DMSO. Frozen cells were later thawed, plated at ˜10,000 cells per well of a 96 half-area well plate that contained drug. With both methods, cells were then grown in a humidified atmosphere with 5% ambient CO2 for five days. Media was then removed from the plates and marker gene activity was measured by the addition of the β-galactosidase substrate o-nitrophenyl β-D-galactopyranoside (ONPG) in PBS with 0.5% NP-40. The resulting colorimetric reaction was measured using a spectrophotometric plate reader (Titertek Inc.) at 420 nm. All data was analyzed using the XLFit (IDBSm) computer program. Efficacy is the percent maximum activation compared to activation by a control compound (SLIGRLm). pEC50 is the negative of the log(EC50), where EC50 is the calculated as a molar concentration (M) that produces 50% maximal activation.
These experiments provide a molecular profile, or fingerprint, for each of these agents at the human PAR2.
Efficacy is relative to the ligand SLIGRL.

| Structure (SMILES) | EC50 [nM] | Emax [%] |
| --- | --- | --- |
| CC(=NNC(=O)C1C(=O)NCC1c1ccccc1)c1cccc(Br)c1 (mixture of isomers) [Compound 3, 2-Oxo-4-phenyl-3-pyrrolidinecarboxylic acid [1-(3-bromo-phenyl)-(E/Z)-ethylidene]-hydrazide] | 39.8 | 134 |
| CC(=NNC(=O)C1C(=O)NCC1c1ccccc1)c1ccc(Br)s1 (mixture of isomers) [Compound 4, 2-Oxo-4-phenyl-3-pyrrolidinecarboxylic acid [1-(5-bromo-thiophen-2-yl)-(E/Z)-ethylidene]-hydrazide] | 631 | 87 |
| CC(=NNC(=O)C1C(=O)NCC1c1ccccc1)c1cc(Br)cs1 (mixture of isomers) [Compound 6, 2-Oxo-4-phenyl-3-pyrrolidinecarboxylic acid [1-(4-bromo-thiophen-2-yl)-(E/Z)-ethylidene]-hydrazide] | 398 | 109 |

More lines, in order of falling EC50, values ahead:

| EC50 [nM] | Emax [%] | Structure (SMILES) |
| --- | --- | --- |
| 1580 | 52 | CC(=NNC(=O)C1C(=O)NCC1c1ccccc1)c1cccs1 (mixture of isomers) [Compound 5, 2-Oxo-4-phenyl-3-pyrrolidinecarboxylic acid [1-(thiophen-2-yl)-(E/Z)-ethylidene]-hydrazide] |
| 794 | 106 | CC(=NNC(=O)C1C(=O)NCC1c1ccccc1)c1cncc(Br)c1 (mixture of isomers) [Compound 7, 2-Oxo-4-phenyl-3-pyrrolidinecarboxylic acid [1-(5-bromo-pyridine-3-yl)-(E/Z)-ethylidene]-hydrazide] |
